According to US20080227846A1, “METHODS OF TREATING JUVENILE TYPE 1 DIABETES MELLITUS” (MUSC Foundation for Research Development, priority 2007, published 2008):
Several values for one entry are separate records, joined by “and”; a condition that tells them apart may be missing. Equal values may be shown once.

Experiments:
[1] = tested on: NOD mice; assay: Prevention of diabetes in NOD mice, daily oral atorvastatin calcium or AICAR; format: in vivo, mouse; details: for NOD mice without diabetes compared to saline: FIG. 6, atorvastatin p<0.004, AICAR 10 mg/kg body weight per day orally p<0.001
Text: The non-obese diabetic (NOD) mouse model is the best-studied animal model of autoimmune diabetes. […] Spontaneous diabetes occurs in female NOD mice and is preceded by insulitis, a lymphocytic infiltration of the pancreatic islets, which is the major histologic event occurring by 5-8 weeks in the NOD mouse (Chatenoud et al., Proc. Natl. Acad. Sci. 91:123-127, 1994).
In these experiments, 4-week old female NOD mice were obtained from Jackson Laboratories (JAX strain no 001976; NOD/LtJ strain) and maintained in a sterile environment. Drug treatment began at 4-weeks of age, prior to inflammatory disease onset. Under normal conditions, diabetes begins appearing in NOD mice by 12-weeks in untreated animals, with 90-100% of the mice developing the disease by 30-weeks.
The animals were divided into three groups of 23 animals each. Group 1 was the control and received vehicle only by oral lavage of physiological saline daily. Groups 2 and 3 received atorvastatin calcium (Lipitor®) at a dose of 5 or 10 mg/kg body weight daily, respectively. Blood glucose (BG) was measured in each animal three-times per week. […] Also, two non-diabetic animals from each group were sacrificed on days 50, 70, and 80 for histological and cytokine analyses (not included in FIG. 1).
In addition to statins, AICAR was also administered to NOD mice at 10 mg/kg body weight per day orally.

[2] = tested on: NOD mice; assay: Atorvastatin calcium and AICAR, individually and in combination, blood glucose in NOD mice; format: in vivo, mouse; details: FIG. 8
[3] = tested on: iNOS, TNF-α, and IFN-γ mRNA; assay: Quantitative real-time PCR of pancreas, pro-inflammatory cytokines and iNOS; format: in vivo, mouse; details: FIG. 9, vs saline-treated mice
[4] = tested on: macrophages (ED1) and granulocytes (GR) infiltrated into the pancreatic islets; assay: Immunohistopathology staining of pancreas for infiltration of macrophages and granulocytes; details: for entry of inflammatory cells into pancreatic tissue: animals of Example 1
[5] = tested on: iNOS and TNF-α protein; assay: Western blot of pancreas tissue; format: in vivo, mouse; details: vs saline-treated diabetic mice
[6] = tested on: juvenile patients newly diagnosed with T1DM; assay: Statin treatment of juvenile patients newly diagnosed with T1DM, C-peptide; format: in vivo, human; details: patient
Method: Two juvenile patients newly diagnosed with T1DM were treated with a statin in order to evaluate whether the diabetic condition in the juvenile patient can be stabilized or reversed by statin treatment. A human patient who was positive for insulin antibodies was identified as having new onset T1DM. […] The patient was treated with 10 mg/day for the first two weeks after diagnosis, and 20 mg/day thereafter.
A human patient who was positive for insulin antibodies was identified as having new onset T1DM. The patient began treatment with 20 mg/day atorvastatin calcium (Lipitor®) at the time (the day of) diagnosis of T1DM. […] Normally, within 12 months after diagnosis a child would have been expected to drop from 100% of the insulin the patient started with to 14.0%±7% (s.d.) of the insulin the child started with.

[7] = Palomer et al., Diabetologia 48:1671-1673 (2005); cited from earlier work
[8] = tested on: NOD mice; assay: Simvastatin plus insulin, blood glucose in NOD mice; format: in vivo, mouse
Method: In another experiment, simvastatin was administered to NOD mice, and the animals were supplemented with insulin in an attempt to keep the animals from developing diabetic ketoacidosis. The study was designed to examine whether simvastatin at 2 mg/kg/day and 5 mg/kg/day protected islet cells from damage during early phases of diabetes. […]. The animals were divided into four groups randomly. Group 1 was the control and received oral lavage of physiological saline daily, plus insulin as set forth above. Groups 2 and 3 received simvastatin at a dose of 2 mg/kg/day or 5 mg/kg/day, respectively, along with insulin as set forth above. Group 4 received no treatment with either simvastatin or insulin. Blood glucose (BG) was measured in each animal approximately once a week, unless the glucose level of an animal began to fluctuate, at which time glucose level were measured every other day. This study lasted approximately four months. The last column of Table 1 is a list of measurements of glucose levels in all animals treated with simvastatin.

[9] = tested on: new-onset T1DM patients; details: cited from earlier work

In the case of NC(=O)c1ncn([C@@H]2O[C@H](CO)[C@@H](O)[C@H]2O)c1N [AICAR, 5-aminoimidazole-4-carboxamide ribonucleoside], the “NOD mice without diabetes compared to saline” value [1] is reported as “significantly different”, the “mean BG vs control Group 1” value ([2]; Group 4, 0.5 mg/gm body weight daily oral, p=0.025 by log-rank test) is reported as “lower” and the “mRNA expression of iNOS, TNF-α, and IFN-γ in pancreas” value [3] is reported as “elevated in saline-treated mice”. The “entry of inflammatory cells into pancreatic tissue” value [4] was “inflammatory cells are not entering pancreatic tissue”.

With CC(C)c1c(C(=O)Nc2ccccc2)c(-c2ccccc2)c(-c2ccc(F)cc2)n1CC[C@@H](O)C[C@@H](O)CC(=O)O [atorvastatin calcium] the “mean BGs” value ([1]; 10 mg/kg daily oral, s.e.=15, n=277, p<0.001 vs saline 219) was 182.5, the “NOD mice without diabetes compared to saline” value [1] was “effective” and the “protection from development of auto-immune diabetes” value ([1]; NOD mice, 5 or 10 mg/kg daily) was “partially protects”. For the same compound, the “number of surviving disease-free animals vs control group” value ([1]; after 104 days of treatment, 5 or 10 mg/kg daily, FIG. 1) was “greater”, the “number of animals that developed diabetes” value ([1]; during treatment, FIG. 1) was “reduction in the number of animals that developed diabetes” and the “mean BG vs control Group 1” value ([2]; Group 2, 5 mg/kg body weight daily oral, day 59-109 after weaning) was “lower”. For the same compound, the “mean BG vs control Group 1” value ([2]; Group 3, 10 mg/kg body weight daily oral, day 59-109 after weaning) was “lower”, the “expression of iNOS and TNF-α protein in pancreas” value [5] was “increased expression of iNOS and TNF-α protein in saline-treated diabetic mice compared with atorvastatin calcium-treated mice” and the “mRNA expression of iNOS, TNF-α, and IFN-γ in pancreas” value [3] was “elevated in saline-treated mice”. The C-peptide ([6]; 10 mg/day two weeks then 20 mg/day, six months, FIG. 14) was “marked increase in C-peptide”, the “rise of C-peptide levels” value ([6]; 20 mg/day, after 50 days of treatment) was 39.25% and the C-peptide level ([6]; 20 mg/day, after 50 days of treatment, initial 35.8 units) was 49.85 units. The “increase of insulin over the original amount of C-peptide” value ([6]; 20 mg/day, over a period of 24 months, FIG. 15) was 240%, the “net increase of the amount of insulin vs expected” value ([6]; expected […]±7% of starting insulin within 12 months) was 600% and the “effect on preventing diabetes” value [7] was “no effect on preventing diabetes”. For the same compound, the “entry of inflammatory cells into pancreatic tissue” value [4] was “inflammatory cells are not entering pancreatic tissue” and the “immunostaining for ED1 and GR1 marker proteins in pancreas” value ([4]; vs intense staining in saline-treated mice) was “No immunostaining was observed”.

With CCC(C)(C)C(=O)O[C@H]1C[C@@H](C)C=C2C=C[C@H](C)[C@H](CC[C@@H]3C[C@@H](O)CC(=O)O3)[C@H]21 [simvastatin] the “average blood glucose level” value ([8]; Group 2, simvastatin 2 mg/kg/day plus insulin, 36 determinations, p=0.05 vs saline plus insulin) was 143.6 ± 26.5 mg/dL, the “average blood glucose level” value ([8]; Group 2, simvastatin 2 mg/kg/day plus insulin, 36 determinations, p=0.05 vs saline plus insulin, listed as Simv.) was 143.6 mg/dL and the “average blood glucose level” value ([8]; Group 3, simvastatin 5 mg/kg/day plus insulin, 28 determinations, p<0.02 vs saline plus insulin) was 134.5 ± 15.7 mg/dL. For the same compound, the “average blood glucose level” value ([8]; Group 3, simvastatin 5 mg/kg/day plus insulin, 28 determinations, p<0.02 vs saline plus insulin, listed as Simv.) was 134.5 mg/dL and the “average blood glucose level” value ([8]; Simvastatin Combined, 64 determinations) was 139.7 mg/dL and 139.6563 mg/dL.

In the case of “TRX4: anti-CD3 monoclonal antibody with orphan drug status”, the “adverse effect associated with therapy” value ([9]; six-day intravenous infusion) is given as “moderate “flu-like” syndrome”.

In the case of “hOKT3y1(ala-ala): modified, nonmitogenic, humanized form of the anti-CD3 monoclonal antibody”, the “patients who maintained the same or improved endogenous insulin secretion” value ([9]; one year after initial 14-day course, 25% in the control group, Herold et al. 2002) is given as 75%.
